# Experimental data from US5466675A, “Immunological activity of rhamnolipids” (priority 1992, dated 1995).
# Assays:
# [1] = tested on: T-cells isolated from mouse thymus; assay: T-lymphocyte proliferation + Con A; format: cell-based
# Method: Procedure: T-cells were isolated from mouse thymus using conventional procedures, and suspended in DMEM. 5×10^6 cells/ml are incubated overnight at 37° C. in the presence of 3 ug/ml Con A to assess stimulation (positive score, related to 10 U/ml rat interleukin-2) or suppression (negative score, related to control) of cell proliferation. Test substance was evaluated under these conditions at 10, 1, 0.1 and 0.01 uM. After overnight incubation, 2 uCi [^3 H] thymidine is added to each well. Cells were harvested after an additional 48 hour incubation, and thymidine incorporation assessed by liquid scintillation counting.
# herpes simplex virus = assay: effect on viruses, herpes simplex; format: cell-based; conditions: concentrations ≤100 ug/ml
# Method: Tests were performed according to D. A. Vanden Berghe et al., Inst. Pasteur 84,101 (1986). Rhamnolipid (II) was toxic for VERO cells in concentrations ≥200 ug/ml, and cytotoxic on MT4 cells in concentrations >169.40 ug/ml.
# Candida albicans [2] = assay: immunorestoration: immunosuppression with cyclophosphamide and infection with Candida albicans; format: in vivo, mouse (ICR, female); conditions: for Survivor No.: n = 10
# Description: […] One day after the last immunosuppressant dose, the mice were challenged with a suspension of C. albicans sufficient to result in 90 to 100 percent mortality within 10 days in the vehicle treated control group. A greater than 30 percent survival for any drug treated group is considered significant, and possibly a result of immunorestorant activity.
# [3] = tested on: B-cells isolated from mouse spleens; assay: B-lymphocyte proliferation; format: cell-based; conditions: B-cell, 0.5% DMSO, read-out: % Stimulation (+)/Suppression (-)
# Method: Procedure: B-cells were isolated from mouse spleens using conventional procedures, and suspended in DMEM. 10^6 cells/ml were incubated overnight at 37° C. to assess stimulation (positive score, related to 1 ug/ml lipopolysaccharide) or suppression (negative score, related to blank control) of cell proliferation. The test substance was evaluated under these conditions at 10, 1, 0.1, 0.01 and 0.001 uM. After overnight incubation, 2 uCi [^3 H] thymidine incorporation was assessed by liquid scintillation counting.
# Psoriasis = assay: clinical treatment of psoriasis; format: in vivo, human
# Method: 17 patients, 11 men and 6 women, were treated with rhamnolipid (II). Among these, 12 patients were suffering from Psoriasis, 2 from Neurodermitis, 1 from Lichen ruber planus, 1 from Serborhoic dermatitis and one from Dermatitis circumscripta unilocularis eczematoides.
# All patients were treated by application of a cream containing rhamnolipid II over selected psoriatic localities, 2 times a day for 21 days.
# The remaining psoriatic localities on the body were treated with local corticosteroid.
# The treatment and the follow-up of the patients was a "double blind" experiment.
# The therapeutic efficacy was monitored by PASI-index.
# After observing positive results with the first six psoriatic patients, who were treated and monitored until the end of the year, rhamnolipid was applied on larger psoriatic surfaces (up to a half of the patient's body where psoriatic lesions existed). Also, occlusions were used (up to 48 hours) and the duration and usage of occlusions was prolonged up to 35 days.
# Patients were seen 3, 6 and 9 months after treatment and they were instructed not to apply any other local preparations at the same localities where rhamnolipic II was applied.
# rat platelet rich plasma = assay: collagen induced platelet aggregation; format: cell-based; conditions: 0.1 mg/ml
# Method: Collagen induced platelet aggregation in rat platelet rich plasma was not affected by rhamnolipid (II) at 0.1 mg/ml.
# Candida albicans [4] = assay: immunomodulation: infection with Candida albicans; format: in vivo, mouse (ICR, female); conditions: for Survivor No.: n = 10
# Method: The test compound or vehicle was administered i.p. to groups of 10 mice 1 hour before IV, challenge with suspension of C. albicans sufficient to result in 90 to 100% mortality within 10 days in the vehicle treated control group. A greater than 30 percent survival for any treated group is considered very significant, and possibly a result of immunomodulation, while an increase of 20% is considered a moderate immunomodulation activity.
# [5] = IP 0.1 × 3 mg/kg + cyclophosphamide
# [6] = IP 1 × 3 mg/kg + cyclophosphamide
# [7] = IP 10 × 3 mg/kg + cyclophosphamide
# [8] = IP 100 × 3 mg/kg + cyclophosphamide
smiles,measurement,setting,value
"CCCCCCCC(CC(=O)O)OC(=O)CC(CCCCCCC)O[C@@H]1O[C@@H](C)[C@H](O)[C@@H](O)[C@H]1O[C@@H]1O[C@@H](C)[C@H](O)[C@@H](O)[C@H]1O (stereo partly drawn) [Rhamnolipid (II), (alpha-L-rhamnopyranosyl-(1,2)alpha-L-rhamnopyranosyl)-3-hydroxydecanoyl-3-hydroxydecanoic acid]",T-cell proliferation,"[1]; 10 uM, with Con A",inhibited
same,in vitro T cell immunosuppression activity,"[1]; 10 uM, with ConA",T cell immunosuppression activity
same,activation at 0.001 µM,"[1]; Mus musculus, T-cell, read-out: % Stimulation (+)/Suppression (-)",4%
same,activation at 0.01 µM,"[1]; Mus musculus, T-cell, 0.01 uM, ConA, 0.5% DMSO, read-out: % Stimulation (+)/Suppression (-)",7%
same,activation at 0.1 µM,"[1]; Mus musculus, T-cell, 0.1 uM, ConA, 0.5% DMSO, read-out: % Stimulation (+)/Suppression (-)",7%
same,activation at 1 µM,"[1]; Mus musculus, T-cell, 1 uM, ConA, 0.5% DMSO, read-out: % Stimulation (+)/Suppression (-)",3%
same,activation at 10 µM,"[1]; Mus musculus, T-cell, 10 uM, ConA, 0.5% DMSO, read-out: % Stimulation (+)/Suppression (-)",-43%
same,antiviral activity,herpes simplex virus,no activity
same,"Death, days post-inoculum 0-1",Candida albicans [2]; [5],2 #/10 Mice
same,"Death, days post-inoculum 2-3",Candida albicans [2]; [5],1 #/10 Mice
same,"Death, days post-inoculum 4-6",Candida albicans [2]; [5],1 #/10 Mice
same,"Death, days post-inoculum 7-9",Candida albicans [2]; [5],2 #/10 Mice
same,Response Inc. %,Candida albicans [2]; [5],20%
same,Survivor No.,Candida albicans [2]; [5],4
same,"Death, days post-inoculum 0-1",Candida albicans [2]; [6],2 #/10 Mice
same,"Death, days post-inoculum 2-3",Candida albicans [2]; [6],2 #/10 Mice
same,"Death, days post-inoculum 4-6",Candida albicans [2]; [6],1 #/10 Mice
same,"Death, days post-inoculum 7-9",Candida albicans [2]; [6],1 #/10 Mice
same,Response Inc. %,Candida albicans [2]; [6],20%
same,Survivor No.,Candida albicans [2]; [6],4
same,"Death, days post-inoculum 0-1",Candida albicans [2]; [7],2 #/10 Mice
same,"Death, days post-inoculum 2-3",Candida albicans [2]; [7],1 #/10 Mice
same,"Death, days post-inoculum 4-6",Candida albicans [2]; [7],1 #/10 Mice
same,"Death, days post-inoculum 7-9",Candida albicans [2]; [7],0 #/10 Mice
same,Response Inc. %,Candida albicans [2]; [7],40%
same,Survivor No.,Candida albicans [2]; [7],6
same,"Death, days post-inoculum 0-1",Candida albicans [2]; [8],1 #/10 Mice
same,"Death, days post-inoculum 2-3",Candida albicans [2]; [8],1 #/10 Mice
same,"Death, days post-inoculum 4-6",Candida albicans [2]; [8],1 #/10 Mice
same,"Death, days post-inoculum 7-9",Candida albicans [2]; [8],0 #/10 Mice
same,Response Inc. %,Candida albicans [2]; [8],50%
same,Survivor No.,Candida albicans [2]; [8],7
same,in vivo immunorestoration activity,"Candida albicans [2]; summary, no dose stated",very strong
same,activation at 0.001 µM,[3]; 0.001 uM,4%
same,activation at 0.01 µM,[3]; 0.01 uM,8%
same,activation at 0.1 µM,[3]; 0.1 uM,10%
same,activation at 1 µM,[3]; 1 uM,9%
same,activation at 10 µM,[3]; 10 uM,2%
same,curative effects in comparison with corticosteroids,Psoriasis; 1% concentration,long-lasting curative effects
same,remission of the treated area,"Psoriasis; 1% concentration, some patients",still in remission of the treated area after three years
same,appearance of relapses,"Psoriasis; 10 months after treatment, versus local corticosteroid",significantly delayed
same,results on psoriatic lesions,"Psoriasis; cream, 2 times a day for 21 days, follow up 3, 6 and 9 months",good results
same,time to curative effect versus local corticosteroid,Psoriasis; in most cases,sooner or in the same period of time it took local corticosteroid
same,relapses,"Psoriasis; some patients, 10 months following the treatment, larger surfaces, occlusions",no relapses were observed even after 10 months
same,collagen induced platelet aggregation,rat platelet rich plasma,not affected
same,immunomodulation activity,Candida albicans [4]; 10 mg/kg and 1 mg/kg,moderate activity
same,"Death, days post-inoculum 0-1",Candida albicans [4]; IP 0.1 × 3 mg/kg,3 #/10 Mice
same,"Death, days post-inoculum 2-3",Candida albicans [4]; IP 0.1 × 3 mg/kg,4 #/10 Mice
same,"Death, days post-inoculum 4-6",Candida albicans [4]; IP 0.1 × 3 mg/kg,1 #/10 Mice
same,"Death, days post-inoculum 7-9",Candida albicans [4]; IP 0.1 × 3 mg/kg,0 #/10 Mice
same,Response Inc. %,Candida albicans [4]; IP 0.1 × 3 mg/kg,0%
same,Survivor No.,Candida albicans [4]; IP 0.1 × 3 mg/kg,2
same,"Death, days post-inoculum 0-1",Candida albicans [4]; IP 1 × 3 mg/kg,2 #/10 Mice
same,"Death, days post-inoculum 2-3",Candida albicans [4]; IP 1 × 3 mg/kg,3 #/10 Mice
same,"Death, days post-inoculum 4-6",Candida albicans [4]; IP 1 × 3 mg/kg,1 #/10 Mice
same,"Death, days post-inoculum 7-9",Candida albicans [4]; IP 1 × 3 mg/kg,0 #/10 Mice
same,Response Inc. %,Candida albicans [4]; IP 1 × 3 mg/kg,20%
same,Survivor No.,Candida albicans [4]; IP 1 × 3 mg/kg,4
same,"Death, days post-inoculum 0-1",Candida albicans [4]; IP 10 × 3 mg/kg,0 #/10 Mice
same,"Death, days post-inoculum 2-3",Candida albicans [4]; IP 10 × 3 mg/kg,5 #/10 Mice
same,"Death, days post-inoculum 4-6",Candida albicans [4]; IP 10 × 3 mg/kg,1 #/10 Mice
same,"Death, days post-inoculum 7-9",Candida albicans [4]; IP 10 × 3 mg/kg,0 #/10 Mice
same,Response Inc. %,Candida albicans [4]; IP 10 × 3 mg/kg,20%
same,Survivor No.,Candida albicans [4]; IP 10 × 3 mg/kg,4
same,"Death, days post-inoculum 0-1",Candida albicans [4]; IP 100 × 3 mg/kg,6 #/10 Mice
same,"Death, days post-inoculum 2-3",Candida albicans [4]; IP 100 × 3 mg/kg,4 #/10 Mice
same,"Death, days post-inoculum 4-6",Candida albicans [4]; IP 100 × 3 mg/kg,0 #/10 Mice
same,"Death, days post-inoculum 7-9",Candida albicans [4]; IP 100 × 3 mg/kg,0 #/10 Mice
same,Response Inc. %,Candida albicans [4]; IP 100 × 3 mg/kg,0%
same,Survivor No.,Candida albicans [4]; IP 100 × 3 mg/kg,0
same,in vivo immunomodulation activity,"Candida albicans [4]; summary, no dose stated",moderate
